# Results as given in PMC9876986, “Direct cell extraction of membrane proteins for structure–function analysis” (Scientific Reports, 2023).
# Molecular target: T1, mouse PANX1 (pannexin1) (Mus musculus, UniProt Q9JIP4)
# T1 construct: wildtype mouse PANX1, untagged, in His-tagged Salipro nanoparticles
# Assay: SPR on immobilized His-Salipro-mPANX1, empty particles as reference
# Format: binding
# T1 sequence (Q9JIP4 whole entry): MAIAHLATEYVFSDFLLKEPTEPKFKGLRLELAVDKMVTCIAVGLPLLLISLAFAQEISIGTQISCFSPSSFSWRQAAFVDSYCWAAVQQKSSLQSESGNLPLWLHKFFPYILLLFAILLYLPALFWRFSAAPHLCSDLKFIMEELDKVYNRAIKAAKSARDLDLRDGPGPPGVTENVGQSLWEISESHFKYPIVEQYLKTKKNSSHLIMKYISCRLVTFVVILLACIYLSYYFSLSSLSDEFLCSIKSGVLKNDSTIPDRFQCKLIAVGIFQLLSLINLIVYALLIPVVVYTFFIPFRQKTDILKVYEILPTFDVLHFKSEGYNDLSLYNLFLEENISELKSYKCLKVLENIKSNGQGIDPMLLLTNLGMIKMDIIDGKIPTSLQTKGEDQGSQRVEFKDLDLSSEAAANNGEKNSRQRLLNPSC
compound,measurement,value
CC(=O)S[C@@H]1CC2=CC(=O)CC[C@]2(C)[C@H]2CC[C@@]3(C)[C@@H](CC[C@@]34CCC(=O)O4)[C@H]12 [spironolactone],Kd,160 µM
